Reference: the NIST ThermoML archive (doi:10.1021/je060203o)
± gives the expanded uncertainty stated by the source.

Details: Liquid; for speed of sound: Pulse-echo method; for mass density: Vibrating tube method

CCCCCn1cc[n+](C)c1.O=S(=O)([N-]S(=O)(=O)C(F)(F)F)C(F)(F)F
Details	mass density [kg/m3]	speed of sound [m/s]
288.15 K, 500 kPa	–	1255.5 ± 3.1
288.15 K, 3500 kPa	–	1266 ± 3.1
288.15 K, 7000 kPa	–	1278.1 ± 3.1
288.15 K, 10000 kPa	–	1288.3 ± 3.1
288.15 K, 13500 kPa	–	1299.9 ± 3.1
288.15 K, 16990 kPa	–	1311.2 ± 3.1
288.15 K, 20000 kPa	–	1320.7 ± 3.1
288.15 K, 30000 kPa	–	1351.7 ± 3.2
288.15 K, 40000 kPa	–	1380.9 ± 3.2
288.15 K, 50000 kPa	–	1409 ± 3.2
288.15 K, 60000 kPa	–	1435.6 ± 3.2
288.15 K, 70000 kPa	–	1461.2 ± 3.2
288.15 K, 80000 kPa	–	1486 ± 3.2
288.15 K, 90000 kPa	–	1509.9 ± 3.2
288.15 K, 100000 kPa	–	1533 ± 3.2
288.15 K, 112500 kPa	–	1560.9 ± 3.2
288.15 K, 125000 kPa	–	1587.9 ± 3.2
288.15 K, 137510 kPa	–	1613.5 ± 3.2
288.15 K, 150000 kPa	–	1637.8 ± 3.2
298.15 K, 100 kPa	1404.45 ± 2.3	–
298.15 K, 500 kPa	–	1232.1 ± 3.1
298.15 K, 1830 kPa	1405.67 ± 2.3	–
298.15 K, 3500 kPa	–	1242.7 ± 3.1
298.15 K, 7000 kPa	–	1255 ± 3.1
298.15 K, 10000 kPa	–	1265.5 ± 3.1
298.15 K, 10020 kPa	1411.85 ± 2.5	–
298.15 K, 13500 kPa	–	1277.3 ± 3.1
298.15 K, 14980 kPa	1415.45 ± 2.6	–
298.15 K, 16990 kPa	–	1288.9 ± 3.1
298.15 K, 19750 kPa	1418.8 ± 2.8	–
298.15 K, 20000 kPa	–	1298.6 ± 3.1
298.15 K, 25860 kPa	1422.94 ± 2.9	–
298.15 K, 30000 kPa	–	1330.5 ± 3.2
298.15 K, 31480 kPa	1426.64 ± 3	–
298.15 K, 37770 kPa	1430.64 ± 3.2	–
298.15 K, 40000 kPa	–	1360.4 ± 3.2
298.15 K, 44170 kPa	1434.54 ± 3.4	–
298.15 K, 50000 kPa	–	1388.9 ± 3.2
298.15 K, 50750 kPa	1438.46 ± 3.5	–
298.15 K, 59590 kPa	1443.56 ± 3.8	–
298.15 K, 60000 kPa	–	1415.9 ± 3.2
298.15 K, 70000 kPa	–	1441.9 ± 3.2
298.15 K, 80000 kPa	–	1467 ± 3.2
298.15 K, 90000 kPa	–	1491.1 ± 3.2
298.15 K, 100000 kPa	–	1514.5 ± 3.2
298.15 K, 112500 kPa	–	1542.6 ± 3.2
298.15 K, 125000 kPa	–	1569.7 ± 3.2
298.15 K, 137510 kPa	–	1595.7 ± 3.2
298.15 K, 150000 kPa	–	1620.3 ± 3.2
299.15 K, 100 kPa	1403.5 ± 2.3	–
299.15 K, 1830 kPa	1404.78 ± 2.3	–
299.15 K, 10020 kPa	1410.92 ± 2.5	–
299.15 K, 14980 kPa	1414.53 ± 2.6	–
299.15 K, 19750 kPa	1417.87 ± 2.8	–
299.15 K, 25860 kPa	1422.01 ± 2.9	–
299.15 K, 31480 kPa	1425.7 ± 3	–
299.15 K, 37770 kPa	1429.73 ± 3.2	–
299.15 K, 44170 kPa	1433.68 ± 3.4	–
299.15 K, 50750 kPa	1437.64 ± 3.5	–
299.15 K, 59590 kPa	1442.74 ± 3.8	–
300.15 K, 100 kPa	1402.62 ± 2.3	–
300.15 K, 1830 kPa	1403.85 ± 2.3	–
300.15 K, 10020 kPa	1410.01 ± 2.5	–
300.15 K, 14980 kPa	1413.57 ± 2.6	–
300.15 K, 19750 kPa	1416.91 ± 2.8	–
300.15 K, 25860 kPa	1421.12 ± 2.9	–
300.15 K, 31480 kPa	1424.81 ± 3	–
300.15 K, 37770 kPa	1428.87 ± 3.2	–
300.15 K, 44170 kPa	1432.84 ± 3.4	–
300.15 K, 50750 kPa	1436.83 ± 3.5	–
300.15 K, 59590 kPa	1441.99 ± 3.8	–
301.15 K, 100 kPa	1401.81 ± 2.3	–
301.15 K, 1830 kPa	1403.07 ± 2.3	–
301.15 K, 10020 kPa	1409.19 ± 2.5	–
301.15 K, 14980 kPa	1412.71 ± 2.6	–
301.15 K, 19750 kPa	1416.05 ± 2.8	–
301.15 K, 25860 kPa	1420.19 ± 2.9	–
301.15 K, 31480 kPa	1423.9 ± 3	–
301.15 K, 37770 kPa	1427.94 ± 3.2	–
301.15 K, 44170 kPa	1431.88 ± 3.4	–
301.15 K, 50750 kPa	1435.89 ± 3.5	–
301.15 K, 59590 kPa	1441.12 ± 3.7	–
302.15 K, 100 kPa	1400.89 ± 2.3	–
302.15 K, 1830 kPa	1402.16 ± 2.3	–
302.15 K, 10020 kPa	1408.28 ± 2.5	–
302.15 K, 14980 kPa	1411.85 ± 2.6	–
302.15 K, 19750 kPa	1415.2 ± 2.7	–
302.15 K, 25860 kPa	1419.36 ± 2.9	–
302.15 K, 31480 kPa	1423.08 ± 3	–
302.15 K, 37770 kPa	1427.17 ± 3.2	–
302.15 K, 44170 kPa	1431.17 ± 3.3	–
302.15 K, 50750 kPa	1435.18 ± 3.5	–
302.15 K, 59590 kPa	1440.42 ± 3.7	–
303.15 K, 100 kPa	1399.89 ± 2.3	–
303.15 K, 1830 kPa	1401.18 ± 2.3	–
303.15 K, 10020 kPa	1407.27 ± 2.5	–
303.15 K, 14980 kPa	1410.82 ± 2.6	–
303.15 K, 19750 kPa	1414.3 ± 2.7	–
303.15 K, 25860 kPa	1418.46 ± 2.9	–
303.15 K, 31480 kPa	1422.18 ± 3	–
303.15 K, 37770 kPa	1426.25 ± 3.2	–
303.15 K, 44170 kPa	1430.26 ± 3.3	–
303.15 K, 50750 kPa	1434.31 ± 3.5	–
303.15 K, 59590 kPa	1439.59 ± 3.7	–
308.15 K, 100 kPa	1395.34 ± 2.3	–
308.15 K, 500 kPa	–	1209.4 ± 3.1
308.15 K, 1830 kPa	1396.59 ± 2.3	–
308.15 K, 3500 kPa	–	1220.4 ± 3.1
308.15 K, 7000 kPa	–	1233.1 ± 3.1
308.15 K, 10000 kPa	–	1243.7 ± 3.1
308.15 K, 10020 kPa	1402.73 ± 2.5	–
308.15 K, 13500 kPa	–	1255.8 ± 3.1
308.15 K, 14980 kPa	1406.29 ± 2.6	–
308.15 K, 16990 kPa	–	1267.5 ± 3.1
308.15 K, 19750 kPa	1409.65 ± 2.7	–
308.15 K, 20000 kPa	–	1277.5 ± 3.1
308.15 K, 25860 kPa	1413.83 ± 2.9	–
308.15 K, 30000 kPa	–	1310 ± 3.2
308.15 K, 31480 kPa	1417.59 ± 3	–
308.15 K, 37770 kPa	1421.72 ± 3.1	–
308.15 K, 40000 kPa	–	1340.4 ± 3.2
308.15 K, 44170 kPa	1425.82 ± 3.3	–
308.15 K, 50000 kPa	–	1369.1 ± 3.2
308.15 K, 50750 kPa	1429.95 ± 3.5	–
308.15 K, 59590 kPa	1435.35 ± 3.7	–
308.15 K, 60000 kPa	–	1396.7 ± 3.2
308.15 K, 70000 kPa	–	1423.2 ± 3.2
308.15 K, 80000 kPa	–	1448.6 ± 3.2
308.15 K, 90000 kPa	–	1473 ± 3.2
308.15 K, 100000 kPa	–	1496.6 ± 3.2
308.15 K, 112500 kPa	–	1525.2 ± 3.2
308.15 K, 125000 kPa	–	1552.6 ± 3.2
308.15 K, 137510 kPa	–	1579 ± 3.2
308.15 K, 150000 kPa	–	1603.7 ± 3.2
313.15 K, 100 kPa	1390.55 ± 2.2	–
313.15 K, 1830 kPa	1391.88 ± 2.3	–
313.15 K, 10020 kPa	1397.99 ± 2.5	–
313.15 K, 14980 kPa	1401.57 ± 2.6	–
313.15 K, 19750 kPa	1404.95 ± 2.7	–
